# Measured values from patent publication US9428753B2, “Use of LXR antagonists for treatment of side effects of elevated glucocorticoid levels” (The Governing Council of the University of Toronto, priority 2013, dated 2016).
# Entries after “also recorded” stand apart in the source; their conditions may differ.
# Experiments:
# [1] = system: tyrosine aminotransferase (TAT); assay: TAT gene expression in mouse primary hepatocytes; type: cell-based; details: WT, LXRα−/− and LXRβ−/− hepatocytes; 100 nM Dex + 10 μM GSK2033
# Procedure: T09 treatment was used as a positive control for LXR activity. (D) Glucose output over 24 hrs from LXRα−/− and LXRβ−/− mouse primary hepatocytes following Dex 100 nM±10 μM GSK2033 treatment. (E) Glucose output over 8 hrs from WT hepatocytes following Dex 500 nM±10 μM GSK2033 treatments. […] Legend: V=vehicle, G=GSK2033 (LXR antagonist); D=dexamethasone (GR agonist); and T09=T0901317 (LXR agonist).
# Srebp-1c = Srebp-1c gene expression in mouse primary hepatocytes; type: cell-based; details: WT, LXRα−/− and LXRβ−/− hepatocytes; 250 nM T09 + 10 μM GSK2033
# [2] = system: mouse primary hepatocytes; assay: Glucose production (glucose output) in mouse primary hepatocytes; type: cell-based
# Procedure: T09 treatment was used as a positive control for LXR activity. (D) Glucose output over 24 hrs from LXRα−/− and LXRβ−/− mouse primary hepatocytes following Dex 100 nM±10 μM GSK2033 treatment. (E) Glucose output over 8 hrs from WT hepatocytes following Dex 500 nM±10 μM GSK2033 treatments. Data represent the Avg±SD, N=3. *P<0.05 by One way ANOVA, Student Newman Keuls. Legend: V=vehicle, G=GSK2033 (LXR antagonist); D=dexamethasone (GR agonist); and T09=T0901317 (LXR agonist).
# While not wishing to be limited by theory, subsequent to conducting these initial studies it was realized that 24 hour incubation of hepatocytes in gluconeogenic media may be too long. In the literature, for this type of assay, primary heptocytes are usually incubated up to 12 hours. As such, for subsequent studies of the present application, WT cells were treated with 500 nM Dex for 8 hours to be able to measure detectable levels of glucose in the media.
# LXRα−/− mice = assay: In vivo 5 day Dex ± GSK2033 co-treatment study; set-up: species or system mouse
# Procedure: LXRα−/− mice were treated with Vehicle (Veh), Dex (2.5 mg/kg) b.i.d. or GSK2033 40 mg/kg (once a day) along with Dex b.i.d. for 5 days. (A) Plasma glucose levels were measured by a colorimetric kit (Wako). (B) Spleen weights were measured at the time of sacrifice, and are presented normalized to body weight. (C) Liver Pepck, FOXO1, Pgc 1α, FGF21, GR and LXRβ gene expression measured by QPCR. Data represent the Avg±SEM, N=2-5. *P<0.05 by One way ANOVA, Student Newman Keuls.
# Having observed promising results with GSK2033 co-treatment with Dex in-vitro (GSK2033-mediated suppression of GC-induced gluconeogenic side effects without affecting desirable immune suppression); a study was conducted, in which whole body LXRα−/− mice were treated with vehicle (Veh), 2.5 mg/kg bid (subcutaneous injection) Dex or Dex+40 mg/kg GSK2033 (once a day intraperitoneal injection) for 5 days, and sacrificed at lights on.
# G6Pc = G6Pc gene expression in mouse primary hepatocytes; details: LXRα−/− hepatocytes
# Procedure: For the gene expression studies, the isolated hepatocytes were cultured at least 24 hrs prior to treatment with 10 μM Cortisol, 10 μM Triamcinolone acetonide, 10 μM Prednisone, and 100 nM Dex all±10 μM GSK2033 overnight, and then harvested to isolate mRNA.
# GR = molecular target: T1, GR (Homo sapiens, UniProt P04150); assay: GAL4-GR / UAS-luc transfection assay in mouse primary hepatocytes; type: cell-based; set-up: co-transfecting UAS-reporter and GAL4-LBD of the nuclear receptors LXRα, LXRβ and GR; GAL4 (fusion partner); expressed in transfected cells; host or cells: mouse primary hepatocytes; details: GAL4-GR activated with 100 nM Dex
# T1 sequence (P04150 524-758 limits assumed): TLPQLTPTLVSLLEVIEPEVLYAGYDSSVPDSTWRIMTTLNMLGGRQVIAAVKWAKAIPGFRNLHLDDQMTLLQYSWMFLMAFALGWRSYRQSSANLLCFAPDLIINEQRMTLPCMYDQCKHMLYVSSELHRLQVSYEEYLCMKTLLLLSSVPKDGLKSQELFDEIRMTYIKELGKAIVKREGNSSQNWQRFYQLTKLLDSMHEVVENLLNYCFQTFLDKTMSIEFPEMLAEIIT
# Source text: (§1) RLU=relative luciferase units.
# LXRβ = molecular target: T2, LXRβ (Homo sapiens, UniProt P55055); assay: GAL4-LXRβ / UAS-luc co-transfection reporter assay in HEK293 cells; type: cell-based; set-up: co-transfecting UAS-reporter and GAL4-LBD of the nuclear receptors LXRα, LXRβ and GR; GAL4 (fusion partner); expressed in transfected cells; host or cells: HEK293 cells; mouse primary hepatocytes
# T2 sequence (P55055 222-460 limits assumed): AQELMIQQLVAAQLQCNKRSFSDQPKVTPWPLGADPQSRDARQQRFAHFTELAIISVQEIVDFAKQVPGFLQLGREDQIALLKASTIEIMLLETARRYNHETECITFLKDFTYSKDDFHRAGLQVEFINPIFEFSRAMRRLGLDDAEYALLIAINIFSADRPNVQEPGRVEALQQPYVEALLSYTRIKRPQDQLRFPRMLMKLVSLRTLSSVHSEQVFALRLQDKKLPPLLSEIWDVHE
# Procedure: as §1, §1
# Further experiments were then carried out to determine the inhibitory potencies for the individual LXR isoforms in HEK 293 cells by co-transfecting UAS-reporter and GAL4-LBD of the nuclear receptors LXRα, LXRβ and GR and then treating with 8 different concentrations of GSK2033. To assess suppression of ligand activated receptors, the transfected cells were co-treated with increasing doses of GSK2033, in addition to T09091317 or Dex (dexamethasone) (at EC80 of LXR isoforms and GR, respectively).
# A number of experiments were carried out to determine the relative inhibitory potencies of GSK2033, Amgen 54 and DMHCl for the individual LXR isoforms in HEK 293 cells by co-transfecting UAS-reporter and GAL4-LBD of the nuclear receptors LXRα, LXRβ and GR and then treating with 6 different concentrations of GSK2033, Amgen 54 and DMHCl.
# [3] = across the treatment groups (Veh, Dex, Dex+GSK2033)
structure (smiles),measurement,setting,value
"Cc1cc(C)c(S(=O)(=O)N(Cc2ccc(-c3cccc(S(C)(=O)=O)c3)cc2)Cc2ccc(C(F)(F)F)o2)c(C)c1 [GSK2033, 2,4,6-trimethyl-N-((3′-(methylsulfonyl)-[1,1′-biphenyl]-4-yl)methyl)-N-((5-(trifluoromethyl)furan-2-yl)methyl)benzenesulfonamide]",Dex induction of TAT under GSK2033 co-treatment,[1],not altered
same,T09 induction of Srebp-1c under GSK2033 co-treatment,Srebp-1c,significantly decreased
same,glucose secretion (glucose output),"[2]; LXRα−/− hepatocytes, 100 nM Dex + 10 μM GSK2033, 24 hours",1.2 fold
same,glucose secretion (glucose output),"[2]; WT hepatocytes, 500 nM Dex + 10 μM GSK2033, 8 hours",1.25 fold
same,spleen size (weight normalized to body weight),"LXRα−/− mice; Dex 2.5 mg/kg bid + GSK2033 40 mg/kg, 5 days, vs Veh",significantly smaller
same,liver FOXO 1 gene induction,LXRα−/− mice; Dex+GSK2033 group,normalized
same,liver Pepck gene induction,LXRα−/− mice; Dex+GSK2033 group,normalized
same,liver GR gene expression,LXRα−/− mice; [3],did not change
same,liver LXR gene expression,LXRα−/− mice; [3],did not change
same,G6Pc expression,"G6Pc; Example 6, 100 nM Dex + 10 μM GSK2033",4.9 fold
same,G6Pc expression,"G6Pc; Example 6, 10 μM Cortisol + 10 μM GSK2033",7.5 fold
same,G6Pc expression,"G6Pc; Example 6, 10 μM Prednisone + 10 μM GSK2033",9.8 fold
same,G6Pc expression,"G6Pc; Example 6, 10 μM Triamcinolone acetonide + 10 μM GSK2033",8.6 fold
same,G6Pc expression,"G6Pc; Example 8, 100 nM Dex + 10 μM LXR antagonist",5.3 fold
same,GR activity,GR,unaffected; also recorded: did not antagonize
same,IC50,"LXRβ; IC50 against LXRβ, Example 1, T0901317 at EC80 (100 nM), 8 concentrations",37 nM
same,IC50,"LXRβ; IC50 to inhibit LXRβ, Example 7, T0901317 100 nM, 6 concentrations",6.44 nM
same,basal repression of LXRβ,"LXRβ; preliminary experiment, 3 doses",basal repression
